Values of other authors in patent US20170173276A1, “SYSTEM AND METHOD FOR DELIVERING AN ANTI-ADHESIVE SUBSTANCE TO A BODY CAVITY” (Northgate Technologies Inc., priority 2003, published 2017).

Experiments:
[1] = administration in liquid form; shown in some studies
[2] = general/typical value

| Molecule | post-operative shoulder pain [1] | half life [2] [h] |
| --- | --- | --- |
| CCCCN1CCCCC1C(=O)Nc1c(C)cccc1C (stereo not drawn) [Bupivacaine] | reducing post-operative shoulder pain |  |
| low molecular weight heparin |  | 4 to 5 |
| unfractionated heparin |  | 1 to 2 |
